Our source for the IC50 values is US8916564B2, “Substituted pyrido[1,2-a]pyrazines for the treatment of neurodegenerative and neurological disorders” (priority 2012, dated 2014).

The experiment concerns the target γ-secretase (Cricetulus griseus, UniProt G3HNF2). Description: Cell-Based γ-Secretase Assay with ELISA Readout (production of amyloid beta protein Aβ(1-42)). As to conditions: human WT-APP overexpressing CHO cells; Aβ(1-42) ELISA; geometric mean of 2-4 determinations (b: single determination; c: geometric mean of ≧5 determinations). (In an ELISA, binding on a coated surface is turned into a signal by an enzyme label.)

Molecules are shown by their SMILES.

Procedure: The ability of compounds to modulate production of amyloid beta protein Aβ(1-42) was determined using human WT-APP overexpressing CHO cells. Cells were plated at 22,000 cells/100 μL well in 96 well tissue culture treated, clear plates (Falcon) in DMEM/F12 based medium and incubated for 24 hours at 37° C. […] Compounds were added in fresh medium to achieve 1% final DMSO. Appropriate vehicle or inhibitor controls were added into control wells individually to obtain minimum or maximum inhibition values, respectively, for the assay signal window before the plates were incubated for ˜24 hours at 37° C. This procedure produces conditioned media in each well which is tested for Aβ(1-42) levels in the ELISA detection step described next. The remaining cell cultures in each well are also tested for cell toxicity as described below.
Coating of ELISA assay plates was initiated by addition of 50 μL/well of an in-house Aβ(1-42) specific antibody at (3 μg/mL) in 0.1 M NaHCO3 (pH 9.0) into black 384-well Maxisorp® plates (Nunc) and incubated overnight at 4° C. […] Cell toxicity was also measured in the corresponding remaining cells after removal of the conditioned media for the Aβ(1-42) assay by a colorimetric cell proliferation assay (CellTiter 96®AQueous One Solution Cell Proliferation Assay, Promega) according to the manufacturer's instructions. […]

In general, IC50 refers to the concentration needed to halve the response being measured. A high value points to weaker potency. Turning to `Cc1cn(-c2ccc3n(c2=O)CCN(CC2CC(c4ccc(Cl)c(C(F)(F)F)c4)=NO2)C3=O)cn1` (stereo not shown) [Example 32, 2-({3-[-chloro-3-(trifluoromethyl)phenyl]-4,5-dihydro-1,2-oxazol-5-yl}methyl)-7-(4-methyl-1H-imidazol-1-yl)-3,4-dihydro-2H-pyrido[1,2-a]pyrazine-1,6-dione], the concentration for half-maximal inhibition (IC50) was found to be 429 nM.
